Laboratory results: patent US11667602B2, “Compounds and their use” (AstraZeneca AB, priority 2020, dated 2023)

Target: T1, human RXFP1 (Homo sapiens, UniProt Q9HBX9)
T1 sequence (Q9HBX9 1-757): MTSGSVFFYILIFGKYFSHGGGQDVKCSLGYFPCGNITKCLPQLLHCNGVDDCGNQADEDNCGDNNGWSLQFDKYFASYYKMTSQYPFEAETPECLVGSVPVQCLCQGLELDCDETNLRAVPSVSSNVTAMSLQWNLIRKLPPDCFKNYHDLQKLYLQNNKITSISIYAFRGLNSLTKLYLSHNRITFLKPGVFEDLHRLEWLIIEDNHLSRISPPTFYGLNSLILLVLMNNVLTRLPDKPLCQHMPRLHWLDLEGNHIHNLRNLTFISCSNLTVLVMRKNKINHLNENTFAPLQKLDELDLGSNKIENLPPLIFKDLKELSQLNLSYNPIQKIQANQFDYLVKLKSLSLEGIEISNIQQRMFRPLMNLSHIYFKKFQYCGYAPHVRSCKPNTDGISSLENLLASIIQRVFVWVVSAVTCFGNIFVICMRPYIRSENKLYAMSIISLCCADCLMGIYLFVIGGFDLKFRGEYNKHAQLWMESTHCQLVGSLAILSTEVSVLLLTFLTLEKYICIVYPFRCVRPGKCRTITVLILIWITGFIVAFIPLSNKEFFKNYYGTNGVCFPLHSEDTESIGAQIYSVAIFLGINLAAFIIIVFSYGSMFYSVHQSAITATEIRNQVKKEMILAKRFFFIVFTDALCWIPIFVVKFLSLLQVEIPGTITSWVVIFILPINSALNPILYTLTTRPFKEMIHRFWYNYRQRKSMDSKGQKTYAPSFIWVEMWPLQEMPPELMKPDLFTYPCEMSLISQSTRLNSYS
Assay: RXFP1 Hu cAMP (Test A)
Type: cell-based
Set-up: expressed in transfected cells; host or cells: Jump-In T-REx CHO-K1 cells (ThermoFisher), induced with 10 ng/ml doxycycline for 24 h
Conditions: RXFP1 Hu cAMP; for EC50: read-out: Test A EC50
Summary of the method: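 Read-out is HTRF signal, inversely proportional to cAMP, converted to cAMP amount by standard curve. Stimulation occurred in inducible CHO-K1 cells expressing the human receptor with phosphodiesterases blocked by 0.5 mM IBMX.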

Compound	Test A Sinf [%]	EC50 [nM]
COc1cc(C#N)c(O[C@H]2CC[C@@](C)(C(=O)O)CC2)cc1C(=O)Nc1cc(Cl)ccc1C(=O)N[C@H](C)C(C)(C)F [Example 162]	107	69
COc1cc(F)c(OC2CCC(C)(CC(=O)O)CC2)cc1C(=O)NC1C2CCC(C2)C1C(=O)NCC1(C)CCC1 [Example 476, 2-((1S,4s)-4-(2-Fluoro-4-methoxy-5-(((1S,2R,3S,4R)-3-(((1-methylcyclobutyl)methyl)carbamoyl)bicyclo[2.2.1]heptan-2-yl)carbamoyl)phenoxy)-1-methylcyclohexyl)acetic acid]	81	300
COc1cc(F)c(OC2CCC(C)(C(=O)O)CC2)cc1C(=O)NC1C2CCC(CC2)C1C(=O)NCC1(C)CCC1 (single isomer, unassigned) [Example 543, (1R,4s)-4-(2-Fluoro-4-methoxy-5-(((2S*,3R*)-3-(((1-methylcyclobutyl)methyl)carbamoyl)bicyclo[2.2.2]octan-2-yl)carbamoyl)phenoxy)-1-methylcyclohexane-1-carboxylic acid]	88	450
CCOc1cc(F)c(O[C@H]2CC[C@@](C)(C(=O)O)CC2)cc1C(=O)N[C@@H]1[C@H]2CC[C@H](C2)[C@@H]1C(=O)NC12CC(F)(C1)C2 [Example 384]	108	130
(1R,4s)-4-(2-fluoro-4-methoxy-5-(((1S*,2S*,5S*)-2-methoxy-5-((3-((trifluoromethyl)sulfonyl)phenyl)carbamoyl)cyclopentyl)carbamoyl)phenoxy)-1-methylcyclohexane-1-carboxylic acid [Example 527]	101	
COc1cc(F)c(O[C@H]2CC[C@@](C)(C(=O)O)CC2)cc1C(=O)NC1C2C=CC(CC2)C1C(=O)NCC1(C)CCC1 (single isomer, unassigned) [Example 544, (1R,4s)-4-(2-Fluoro-4-methoxy-5-(((1R*,2S*,3R*,4S*)-3-(((1-methylcyclobutyl)methyl)carbamoyl)bicyclo[2.2.2]oct-5-en-2-yl)carbamoyl)phenoxy)-1-methylcyclohexane-1-carboxylic acid]		> 40000
COc1cc(C#N)c(O[C@H]2CC[C@@](C)(C(=O)O)CC2)cc1C(=O)Nc1cc(C)ccc1C(=O)N[C@H]1C[C@@H](C)C1 [Example 171]	119	440
COc1cc(F)c(O[C@H]2CC[C@@H](C(=O)O)CC2)cc1C(=O)N[C@@H]1[C@@H]2C[C@@H]([C@@H](O)[C@H]2O)[C@@H]1C(=O)Nc1cccc(S(=O)(=O)C(F)(F)F)c1 [Example 494]	90	6900
COc1cc(F)c(O[C@H]2CC[C@@](OC)(C(=O)O)CC2)cc1C(=O)N[C@@H]1[C@H]2CC[C@H](C2)[C@@H]1C(=O)NCC1(C)CCC1 [Example 506, (1R,4r)-4-(2-Fluoro-4-methoxy-5-(((1S,2R,3S,4R)-3-(((1-methylcyclobutyl)methyl)carbamoyl)bicyclo[2.2.1]heptan-2-yl)carbamoyl)phenoxy)-1-methoxycyclohexane-1-carboxylic acid]	98	320
COc1cc(C#N)c(O[C@H]2CC[C@@](C)(C(=O)O)CC2)cc1C(=O)Nc1cc(C)ccc1C(=O)NCc1cccc(F)c1 [Example 166, (1s,4s)-4-(2-Cyano-5-((2-((3-fluorobenzyl)carbamoyl)-5-methylphenyl)carbamoyl)-4-methoxyphenoxy)-1-methylcyclohexane-1-carboxylic acid]	137	580
COc1cc(C#N)c(O[C@H]2CC[C@@](C)(C(=O)O)CC2)cc1C(=O)N[C@@H]1[C@H]2CC[C@H](C2)[C@@H]1C(=O)NCC1CCOCC1 [Example 137]	93	> 2300
COc1cc(F)c(O[C@H]2CC[C@@](CO)(C(=O)O)CC2)cc1C(=O)NC1C2CCC(O2)C1C(=O)NCC1(C)CCC1 (single isomer, unassigned) [Example 532, (1R,4s)-4-(2-Fluoro-4-methoxy-5-(((1S*,2S*,3R*,4R*)-3-(((1-methylcyclobutyl)methyl)carbamoyl)-7-oxabicyclo[2.2.1]heptan-2-yl)carbamoyl)phenoxy)-1-(hydroxymethyl)cyclohexane-1-carboxylic acid]	104	140
CC1(CNC(=O)[C@H]2[C@@H]3CC[C@@H](C3)[C@H]2NC(=O)c2cc(O[C@H]3CC[C@@](C)(C(=O)O)CC3)cc3cccnc23)CCC1 [Example 407]	99	260
COc1cc(F)c(O[C@H]2CC[C@@](C)(C(=O)O)CC2)cc1C(=O)N[C@@H]1[C@H]2CC[C@H](C2)[C@@H]1C(=O)N[C@H]1CCCC1(C)C (relative stereo) [Example 504, (1S,4s)-4-(5-(((1S,2R,3S,4R)-3-(((R*)-2,2-Dimethylcyclopentyl)carbamoyl)bicyclo[2.2.1]heptan-2-yl)carbamoyl)-2-fluoro-4-methoxyphenoxy)-1-methylcyclohexane-1-carboxylic acid]	91	600
COc1cc(F)c(OC2CCC(CO)(C(=O)O)CC2)cc1C(=O)NC1CC(OC)CC1C(=O)NCC1(C)CCC1 (single isomer, unassigned) [Example 550, (1R,4s)-4-(2-Fluoro-4-methoxy-5-(((1S*,2R*,4R*)-4-methoxy-2-(((1-methylcyclobutyl)methyl)carbamoyl)cyclopentyl)carbamoyl)phenoxy)-1-(hydroxymethyl)cyclohexane-1-carboxylic acid]		> 40000
Cn1ncc2cc(C(=O)N[C@@H]3[C@H]4CC[C@H](C4)[C@@H]3C(=O)NCC3(C)CCC3)cc(O[C@H]3CC[C@@](C)(C(=O)O)CC3)c21 [Example 378]		> 2500

The next lines start with the values.

Test A Sinf [%]	EC50 [nM]	Compound
104	140	COc1cc(F)c(OC[C@H]2C[C@@H](C(=O)O)C2)cc1C(=O)N[C@@H]1[C@@H]2CC[C@@H](C2)[C@@H]1C(=O)Nc1cccc(S(=O)(=O)C(F)(F)F)c1 [Example 473, (1S,3s)-3-((2-Fluoro-4-methoxy-5-(((1R,2R,3S,4S)-3-((3-((trifluoromethyl)sulfonyl)phenyl)carbamoyl)bicyclo[2.2.1]heptan-2-yl)carbamoyl)phenoxy)methyl)cyclobutane-1-carboxylic acid]
	> 40000	COc1cc(F)c(-c2ccc(C(=O)O)cc2)cc1C(=O)N[C@H]1[C@@H]2CC[C@@H](C2)[C@H]1C(=O)Nc1ccc(F)c(C(F)(F)F)c1 (single isomer, unassigned) [Example 590]
114	260	COc1cc(F)c(-c2ccc(C(=O)O)cc2)cc1C(=O)N[C@@H]1[C@@H]2CC[C@@H](C2)[C@@H]1C(=O)Nc1cccc(S(=O)(=O)C(F)(F)F)c1 (racemic) [Example 303]
107	800	COc1cc(F)c(-c2nnc(CCC(=O)O)s2)cc1C(=O)N[C@H]1C(C(=O)Nc2cccc(S(=O)(=O)C(F)(F)F)c2)[C@@H]2CC[C@H]1C2 (stereo partly drawn) [Example 322, 3-(5-(2-Fluoro-4-methoxy-5-(((1S,2R,3S,4R)-3-((3-((trifluoromethyl)sulfonyl)phenyl)carbamoyl)bicyclo[2.2.1]heptan-2-yl)carbamoyl)phenyl)-1,3-,4-thiadiazol-2-yl)propanoic acid]
100	130	COc1cc(F)c(-c2ccc(C(=O)O)c(N(C)C)c2)cc1C(=O)N[C@@H]1[C@H]2CC[C@H](C2)[C@@H]1C(=O)Nc1cccc(S(=O)(=O)C(F)(F)F)c1 [Example 239]
86	780	COc1cc(F)c(-c2cc(C)c(C(=O)O)c(C)c2)cc1C(=O)N[C@@H]1[C@H]2CC[C@H](C2)[C@@H]1C(=O)Nc1cccc(S(=O)(=O)C(F)(F)F)c1 [Example 252, 2′-Fluoro-4′-methoxy-3,5-dimethyl-5′-(((1S,2R,3S,4R)-3-((3-((trifluoromethyl)sulfonyl)phenyl)carbamoyl)bicyclo[2.2.1]heptan-2-yl)carbamoyl)-[1,1′-biphenyl]-4-carboxylic acid]
99	94	COc1cc(F)c(O[C@H]2CC[C@@](C)(C(=O)O)CC2)cc1C(=O)N[C@@H]1[C@H]2CC[C@H](C2)[C@@H]1C(=O)NC(C)(C)C(F)(F)F [Example 603]
91		COc1cc(F)c(OC[C@H]2C[C@H](C(=O)O)C2)cc1C(=O)N[C@@H]1[C@@H]2CC[C@@H](C2)[C@@H]1C(=O)Nc1cccc(S(=O)(=O)C(F)(F)F)c1 [Example 472, (1R,3r)-3-((2-Fluoro-4-methoxy-5-(((1R,2R,3S,4S)-3-((3-((trifluoromethyl)sulfonyl)phenyl)carbamoyl)bicyclo[2.2.1]heptan-2-yl)carbamoyl)phenoxy)methyl)cyclobutane-1-carboxylic acid]
